Results on 1 substance are retold here after US20230151065A1, “MULTI-DISULFIDE-BOND LONG-CHAIN PEPTIDE WITH NEURO[…], PHARMACEUTICAL COMPOSITION AND APPLICATION” (priority 2018, published 2023).

In test [1] the test system is primary cultured hippocampal neurons. In words: Synapse formation in hippocampal neurons (SYN/PSD95 staining, PSD95 Western blot). As to conditions: treatment with ABPPk2 for 8 d. In kind it is cell-based, rat. As to the method: (1) Primary culture of fetal rat hippocampal neurons: after a rat pregnant for 17 days was anesthetized, a fetal rat was taken out under sterile conditions; the brain of the fetal rat was taken out on ice; the hippocampus was carefully taken out under a dissecting microscope; and the blood vessel membranes were removed. 0.125% trypsin/EDTA was digested at 37° C. for 10 min, and the digestion was stopped by adding the DMEM complete medium containing 10% FBS. Cell debris were removed through centrifugal at 1000 rpm for 5 min; the DMEM complete medium was added to resuspend the cells; the cells were gently blown until a single cell suspension was formed; and the cells were inoculated at an appropriate density on a culture plate (dish) pre-coated with polylysine (PLL) and cultured at 37° C., 5% CO2 incubator. […]
(7) Promotion effect of ABPPk2 on synapse formation in primary cultured hippocampal neurons. […] The field of view was randomly selected and photographed under the laser confocal microscope, and the number of synaptic cristulas on every 100 μm neurites was counted. The effect of ABPPk2 on the expression of PSD95 was analyzed by Western blot. The steps were as follows: the total protein was extracted and the total protein concentration was determined by Bradford method. […]

For test [2], the system named is PI3K/AKT signaling pathway in cortical neurons after OGD damage. In words: OGD damage of cortical neurons with PI3K inhibitor LY-294002, Western blot of p-AKT and Cleaved caspase-3. It is filed as cell-based, SD rat.
In test [3] the test system is primary cultured hippocampal neurons damaged by NMDA. In words: NMDA damage of primary cultured hippocampal neurons, MTT viability. In kind it is cell-based, SD (Sprague-Dawley) rat. The settings on record: for hippocampal neuron activity after NMDA damage (MTT): MK801 10 μM. The source says: (1) Establishment of NMDA damage model. Primary culture of hippocampal neurons: SD (Sprague-Dawley) female rats pregnant for 18-19 days were anesthetized with a compound anaesthetic agent; fetal rat brains were taken under aseptic conditions and placed in HBSS solution (8.4 g/L of NaCl, 0.224 g/L of KCl, 2.38 g/L of HEPES, 500,000 units of penicillin sodium and 500,000 units of kanamycin sulfate; the pH was adjusted to 7.1-7.2 with 1M NaOH; then the osmotic pressure was adjusted to about 290±10 m Osm with ultrapure water; and after filtration, the solution was stored at 4° C.); the meninges were removed under a stereoscopic dissecting microscope; the bilateral hippocampus was removed and digested in 0.125% pancreatic protease at 37° C. for 10 min; and complete media (90% DMEM medium+10% FBS) (FBS: fetal bovine serum) was used to terminate the digestion; the bilateral hippocampus was washed for 3 times with the complete media to make a single cell suspension; the cell density was adjusted to about 7-8×10^5/ml; and the bilateral hippocampus was inoculated to a 6-well/96-well cell culture plate/60 mm culture dish/slide coated with L-polylysine. After 24 hours, the media were changed to serum-free neurobasal media (GIBCO) which were then placed in a 5% CO2, 37° C. incubator for culture; and half of the solution was changed every three days.
(2) NMDA damage treatment of hippocampal neurons: (1) The original media were sucked out and the cells were washed with magnesium-free extracellular fluid for three times, each for 5 minutes. (2) 10 mM NMDA (N-methyl-D-aspartic acid) and 10 mM Gly (glycine) were prepared with magnesium-free extracellular fluid, and NMDA was prepared to different concentrations with the magnesium-free extracellular fluid, wherein the final concentration of Gly was 10 μM. […] After damage, the cells were washed for three times with DMEM medium, each for 5 minutes. (3) The original culture media were re-added to continue for culturing for 24 hours.
(3) Detection of viability of hippocampal neurons after NMDA damage: (1) The hippocampal neurons were inoculated into a 96-well culture plate at 8×10^5 cells/ml, 0.1 ml per well, and cultured in a 5% CO2 incubator for 7-8 days. (2) After NMDA damage treatment and continuous culture for 24 hours, the culture solution was sucked off. (3) 100 μl of DMEM culture medium containing MTT (3-(4,5-dimethylthiazole-2)-2,5-diphenyltetrazolium bromide, 0.5 mg/ml) was added to each well, and the culture plate was put into 37° C., 5% CO2 incubator for culturing for 4 h. (4) 100 μl of 20% SDS was added to each well (20 g of sodium lauryl sulfate was dissolved in 50 ml of ddH2O+50 ml of N,N dimethylformamide) at 37° C. for 20 h. (5) The solution was shaken on a horizontal shaker for 5 min. (6) The optical density (OD) was measured at 570 nm (reference wavelength of 490 nm) on a microplate reader.
(6) Effect of ABPPk2 on decrease of hippocampal neuron activity caused by NMDA. Effect of different concentrations of ABPPk2 on hippocampal neuron damage caused by NMDA (100 μM, 30 min). The experiment was divided into 9 experimental groups: a normal group, NMDA (100 μM, 30 min) group (as a control group), ABPPk2 (0.01 μg/ml) group, ABPPk2 (0.1 μg/ml) group, ABPPk2 (0.3 μg/ml) group, ABPPk2 (1 μg/ml) group, ABPPk2 (3 μg/ml) group, ABPPk2 (10 μg/ml) group and MK801 (dizocilpine, 10 μM) group (as a positive control group). Three administration ways were adopted for ABPPk2: (1) ABPPk2 was administered 12 hours before and during the NMDA damage. (2) ABPPk2 was administered during NMDA damage. (3) ABPPk2 was administered during 24 hours of culture after NMDA damage.

Setting [4] is: after OGD and LY-294002 treatment, ABPPk2 high-dose group.
Where [5] appears, read: after OGD damage, vs OGD group, ABPPk2 at high dose, LY-294002 30 min.

Where no end group is shown, it is not given here.

“Cys-Leu-Glu-Ser-Gly-Thr-Ser-Cys-Ile-Pro-Gly-Ala-Gln-His-Asn-Cys-Cys-Ser-Gly-Val-Cys-Val-Pro-Ile-Val-Thr-Ile-Phe-Tyr-Gly-Val-Cys-Tyr (CLESGTSCIPGAQHNCCSGVCVPIVTIFYGVCY; disulfide (positions not given here); not fully specified (bridges); also: three disulfide bonds, pairing not given here) [ABPPk2, 33 amino acid polypeptide isolated from the extract of Achyranthes bidentata Blume, three pairs of disulfide bonds]”: the “number of the formed synapses” value in test [1] is “the number of the formed synapses can be significantly increased”. In test [1] (Western blot), the “expression of PSD95 protein” value was “up-regulated”. Moreover, the “expression of Cleaved caspase-3” value in test [2] (setting [4]) and in test [2] (setting [5]) was “significantly down-regulated” in each case. In addition, the “expression of p-AKT” value in test [2] (setting [4]) and in test [2] (setting [5]) was “significantly up-regulated” in each case. The “hippocampal neuron activity after NMDA damage (MTT)” value in test [3] (given 12 h before and during NMDA (100 μM, 0.5 h), ABPPk2 0.1, 0.3 and 1 μg/ml groups) was “can effectively reduce the decrease of hippocampal neuron activity caused by NMDA damage”; in test [3] (given during 24 h culture after NMDA damage (100 μM, 0.5 h), ABPPk2 0.1-10 μg/ml), “can effectively reduce the decrease of hippocampal neuron activity caused by NMDA damage”; in test [3] (given during NMDA damage (100 μM, 0.5 h), ABPPk2 1 and 10 μg/ml groups) it was “can effectively reduce the decrease of hippocampal neuron activity caused by NMDA damage”. Moreover, in test [3] (overall statement, experimental solution of embodiment 6, concentration and administration way not stated), the “protective effect on NMDA damage of primary hippocampal neurons” value is given as “has a protective effect on the damage of primary cultured hippocampal neurons induced by NMDA”.
